Literature values as cited in patent US20080057086A1, “COLON-TARGETED ORAL FORMULATIONS OF CYTIDINE ANALOGS” (PHARMION CORPORATION, priority 2006, published 2008).

Test system: total hemoglobin, fetal hemoglobin and F cells
Conditions: sickle cell patients; oral THU 200 mg/d alone; cited from earlier work

For O=C1NC(O)CCN1[C@@H]1O[C@H](CO)[C@@H](O)[C@H]1O (stereo partly shown) [THU, tetrahydrouridine], the F reticulocyte production is listed as “did not result in increased F reticulocyte production”.
